Tested on: SLC22A9
Assay: Placebo controlled study of ammonium chloride oral supplement: SLC22A9 expression from hair follicles
Type: in vivo
Conditions: 268 mg ammonium chloride oral supplement daily for 5 days; measured at baseline and day 5; 10 subjects active vs 10 placebo; p=0.01
Procedure: A placebo controlled study was conducted with a 268 mg ammonium chloride oral supplement to ascertain increase in SLC22A9 up-regulation. Ten subjects were administered the placebo and 10 subjects were administered ammonium chloride daily for 5 days. The SLC22A9 expression from hair follicles was measured at baseline and day 5. SLC22A9 increased 3 folds and was statistically significant p=0.01 increased in the active vs placebo group.

In the case of `Cl.N` [ammonium chloride], the “SLC22A9 expression from hair follicles, increase” value is reported as 3 folds.

Reference: patent US20260183286A1, “Compositions and Methods for an Oral Supplement to Oral Minoxidil for the Treatment of Alopecia” (FOLLEA INTERNATIONAL, priority 2023, published 2026)
